*1 amine or outer side, *2 acyl side, *3 side chain or, on linkers, in order; H or OH if unused. Where a SMILES comes first, the peptide text is derived from it. Side-chain parts run from the residue outwards. [ ]: non-standard residue; d: D form. The star is where a group is joined. C20 diacid = O=C(O)CCCCCCCCCCCCCCCCCCC(=O)*; αMePhe(2-F) = C[C@](N)(Cc1ccccc1F)C(=O)O; γGlu = O=C(O)[C@H](CCC(=O)[*:2])N[*:1]; αMeF = C[C@](N)(Cc1ccccc1)C(=O)O; 4Pal = N[C@@H](Cc1ccncc1)C(=O)O; αMeL = CC(C)C[C@](C)(N)C(=O)O; AEEA = NCCOCCOCC(=O)O; Aib = CC(C)(N)C(=O)O
How the values were obtained:
human GcgR = molecular target: T1, human GcgR (Homo sapiens, UniProt P47871); test: [125I]-Glucagon binding, SPA with WGA beads, 0.1% bacitracin; conditions: geometric mean, read-out: hGcgR Ki
T1 construct: expressed in transfected cells; crude membranes
How it was run: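 SPA competition binding with WGA beads on crude membranes from HEK293 cells stably expressing hGcgR. Buffer: 25 mM HEPES pH 7.4, 2.5 mM CaCl2, 1 mM MgCl2, 0.1% bacitracin, 0.003% Tween-20; 10-point 3-fold dilutions, NSB with 1 μM Gcg.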

human GIPR = molecular target: T2, human GIPR (Homo sapiens, UniProt P48546); test: [125I]-GIP binding, SPA with WGA beads, 0.1% bacitracin; conditions: geometric mean, read-out: hGIPR Ki
T2 construct: expressed in transfected cells; crude membranes
T2 sequence (P48546 22-466): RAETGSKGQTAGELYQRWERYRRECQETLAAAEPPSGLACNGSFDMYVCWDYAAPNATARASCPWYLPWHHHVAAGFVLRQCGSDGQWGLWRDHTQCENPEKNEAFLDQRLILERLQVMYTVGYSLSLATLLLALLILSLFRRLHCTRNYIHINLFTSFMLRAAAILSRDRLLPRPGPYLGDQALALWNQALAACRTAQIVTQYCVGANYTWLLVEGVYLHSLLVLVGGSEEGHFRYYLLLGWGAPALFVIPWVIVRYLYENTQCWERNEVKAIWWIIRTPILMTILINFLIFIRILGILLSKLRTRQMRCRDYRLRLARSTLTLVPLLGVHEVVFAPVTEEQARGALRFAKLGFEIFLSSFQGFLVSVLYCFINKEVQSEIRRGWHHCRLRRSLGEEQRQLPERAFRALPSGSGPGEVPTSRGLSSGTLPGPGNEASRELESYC
How it was run: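 Ki values are geometric means (SEM, n independent days), derived from four-parameter nonlinear regression of IC50. Membranes came from hGIPR-expressing CHO cells.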

human GLP-1R = molecular target: T3, human GLP-1R (Homo sapiens, UniProt P43220); test: [125I]-GLP-1 binding, SPA with WGA beads, 0.1% bacitracin; conditions: geometric mean, read-out: hGLP1R Ki
T3 construct: expressed in transfected cells; crude membranes
How it was run: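 Binding buffer was 25 mM HEPES pH 7.4 with 2.5 mM CaCl2, 1 mM MgCl2, 0.1% (w/v) bacitracin, 0.003% Tween-20 and EDTA-free protease inhibitors. Four-parameter regression gave IC50, converted to Ki (geometric mean, SEM, n independent days).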

T3 sequence (P43220 24-463): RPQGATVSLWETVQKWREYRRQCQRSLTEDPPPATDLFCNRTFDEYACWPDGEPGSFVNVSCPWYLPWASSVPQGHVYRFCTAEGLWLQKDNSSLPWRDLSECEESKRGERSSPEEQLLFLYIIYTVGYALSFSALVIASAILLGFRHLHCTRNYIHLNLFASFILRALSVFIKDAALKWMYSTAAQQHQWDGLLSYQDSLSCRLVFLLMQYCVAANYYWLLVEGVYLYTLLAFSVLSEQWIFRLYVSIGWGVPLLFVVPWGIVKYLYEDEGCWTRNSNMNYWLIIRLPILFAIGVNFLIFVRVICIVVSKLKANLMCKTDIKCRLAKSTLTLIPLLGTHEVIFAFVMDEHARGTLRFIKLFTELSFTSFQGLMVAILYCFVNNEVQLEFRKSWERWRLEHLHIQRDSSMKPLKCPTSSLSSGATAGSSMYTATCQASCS
T1 sequence (P47871 26-477): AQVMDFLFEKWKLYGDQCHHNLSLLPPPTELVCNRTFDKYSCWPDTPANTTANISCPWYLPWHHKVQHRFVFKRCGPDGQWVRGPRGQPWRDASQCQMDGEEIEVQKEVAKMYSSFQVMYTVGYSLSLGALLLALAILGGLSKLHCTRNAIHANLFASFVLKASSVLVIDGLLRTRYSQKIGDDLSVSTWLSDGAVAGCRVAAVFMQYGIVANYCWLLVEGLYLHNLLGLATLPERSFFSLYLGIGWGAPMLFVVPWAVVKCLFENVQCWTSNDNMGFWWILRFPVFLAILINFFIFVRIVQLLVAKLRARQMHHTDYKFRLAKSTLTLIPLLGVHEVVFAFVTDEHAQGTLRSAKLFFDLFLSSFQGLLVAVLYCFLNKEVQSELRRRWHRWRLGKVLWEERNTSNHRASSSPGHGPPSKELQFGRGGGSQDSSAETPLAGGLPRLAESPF

SMILES | Ki (human GcgR) [nM] | Ki (human GIPR) [nM] | Ki (human GLP-1R) [nM]
CC[C@H](C)[C@H](NC(=O)[C@H](CO)NC(=O)[C@H](Cc1ccc(O)cc1)NC(=O)[C@H](CC(=O)O)NC(=O)[C@H](CO)NC(=O)[C@@H](NC(=O)[C@](C)(Cc1ccccc1)NC(=O)[C@@H](NC(=O)CNC(=O)[C@H](CCC(=O)O)NC(=O)C(C)(C)NC(=O)[C@@H](N)Cc1ccc(O)cc1)[C@@H](C)O)[C@@H](C)CC)C(=O)N[C@@](C)(CC(C)C)C(=O)N[C@@H](CC(C)C)C(=O)N[C@@H](CC(=O)O)C(=O)N[C@@H](CCCCN)C(=O)N[C@@H](CCCCNC(=O)COCCOCCNC(=O)COCCOCCNC(=O)CC[C@H](NC(=O)CCCCCCCCCCCCCCCCCCC(=O)O)C(=O)O)C(=O)N[C@@H](Cc1c[nH]cn1)C(=O)N[C@@H](CCC(N)=O)C(=O)NC(C)(C)C(=O)N[C@@H](CCC(=O)O)C(=O)N[C@@H](Cc1ccccc1)C(=O)N[C@H](C(=O)N[C@@H](CCC(=O)O)C(=O)N[C@@H](Cc1ccncc1)C(=O)N[C@@H](CC(C)C)C(=O)N[C@@H](CC(C)C)C(=O)N[C@@H](C)C(=O)N[C@@H](C)C(=O)NCC(=O)N1CCC[C@H]1C(=O)N[C@@H](CO)C(=O)N[C@@H](CO)C(=O)NCC(=O)N[C@@H](C)C(=O)N1CCC[C@H]1C(=O)N1CCC[C@H]1C(=O)N1CCC[C@H]1C(=O)N[C@@H](CO)C(N)=O)C(C)C [Example 62] (H-Y[Aib]EGT[αMeF]ISDYSI[αMeL]LDKK([AEEA-AEEA-γGlu-C20 diacid])HQ[Aib]EFVE[4Pal]LLAAGPSSGAPPPS-NH2) | 31.3 | 0.0414 | 47.6
CC[C@H](C)[C@H](NC(=O)[C@H](CO)NC(=O)[C@H](Cc1ccc(O)cc1)NC(=O)[C@H](CC(=O)O)NC(=O)[C@H](CO)NC(=O)[C@@H](NC(=O)[C@](C)(Cc1ccccc1)NC(=O)[C@@H](NC(=O)CNC(=O)[C@H](CCC(=O)O)NC(=O)C(C)(C)NC(=O)[C@@H](N)Cc1ccc(O)cc1)[C@@H](C)O)[C@@H](C)CC)C(=O)N[C@@H](C)C(=O)N[C@@H](CC(C)C)C(=O)N[C@@H](CC(=O)O)C(=O)N[C@@H](CCCCN)C(=O)N[C@@H](CCCCNC(=O)COCCOCCNC(=O)COCCOCCNC(=O)CC[C@H](NC(=O)CCCCCCCCCCCCCCCCCCC(=O)O)C(=O)O)C(=O)N[C@@H](Cc1c[nH]cn1)C(=O)N[C@@H](CCC(N)=O)C(=O)NC(C)(C)C(=O)N[C@@H](CC(=O)O)C(=O)N[C@@H](Cc1ccccc1)C(=O)N[C@H](C(=O)N[C@@H](CCC(=O)O)C(=O)N[C@@H](Cc1ccncc1)C(=O)N[C@@H](CC(C)C)C(=O)N[C@@H](CC(C)C)C(=O)N[C@@H](CCC(=O)O)C(=O)N[C@@H](C)C(=O)NCC(=O)N1CCC[C@H]1C(=O)N[C@@H](CO)C(=O)N[C@@H](CO)C(=O)NCC(=O)N[C@@H](C)C(=O)N1CCC[C@H]1C(=O)N1CCC[C@H]1C(=O)N1CCC[C@H]1C(=O)N[C@@H](CO)C(N)=O)C(C)C [Example 43] (H-Y[Aib]EGT[αMeF]ISDYSIALDKK([AEEA-AEEA-γGlu-C20 diacid])HQ[Aib]DFVE[4Pal]LLEAGPSSGAPPPS-NH2) | 285 | 0.0366 | 605
CC[C@H](C)[C@H](NC(=O)[C@H](CO)NC(=O)[C@H](Cc1ccc(O)cc1)NC(=O)[C@H](CC(=O)O)NC(=O)[C@H](CO)NC(=O)[C@@H](NC(=O)[C@](C)(Cc1ccccc1F)NC(=O)[C@@H](NC(=O)CNC(=O)[C@H](CCC(=O)O)NC(=O)C(C)(C)NC(=O)[C@@H](N)Cc1ccc(O)cc1)[C@@H](C)O)[C@@H](C)CC)C(=O)N[C@@H](C)C(=O)N[C@@H](CC(C)C)C(=O)N[C@@H](CC(=O)O)C(=O)N[C@@H](CCCCN)C(=O)N[C@@H](CCCCNC(=O)COCCOCCNC(=O)COCCOCCNC(=O)CC[C@H](NC(=O)CCCCCCCCCCCCCCCCCCC(=O)O)C(=O)O)C(=O)N[C@@H](Cc1c[nH]cn1)C(=O)N[C@@H](CCC(N)=O)C(=O)NC(C)(C)C(=O)N[C@@H](CC(=O)O)C(=O)N[C@@H](Cc1ccccc1)C(=O)N[C@H](C(=O)N[C@@H](CCC(=O)O)C(=O)N[C@@H](Cc1ccc(O)cc1)C(=O)N[C@@H](CC(C)C)C(=O)N[C@@H](CC(C)C)C(=O)N[C@@H](CCC(=O)O)C(=O)NCC(=O)NCC(=O)N1CCC[C@H]1C(=O)N[C@@H](CO)C(=O)N[C@@H](CO)C(=O)NCC(=O)N[C@@H](C)C(=O)N1CCC[C@H]1C(=O)N1CCC[C@H]1C(=O)N1CCC[C@H]1C(=O)N[C@@H](CO)C(N)=O)C(C)C [Example 37] (H-Y[Aib]EGT[αMePhe(2-F)]ISDYSIALDKK([AEEA-AEEA-γGlu-C20 diacid])HQ[Aib]DFVEYLLEGGPSSGAPPPS-NH2) | 51.4 | 0.026 | 83.9
CC[C@H](C)[C@H](NC(=O)[C@H](Cc1ccccc1)NC(=O)[C@@H](NC(=O)CNC(=O)[C@H](CCC(=O)O)NC(=O)C(C)(C)NC(=O)[C@@H](N)Cc1ccc(O)cc1)[C@@H](C)O)C(=O)N[C@@H](CO)C(=O)N[C@@H](CC(=O)O)C(=O)N[C@@H](Cc1ccc(O)cc1)C(=O)N[C@@H](CO)C(=O)N[C@H](C(=O)N[C@@](C)(CC(C)C)C(=O)N[C@@H](CC(C)C)C(=O)N[C@@H](CC(=O)O)C(=O)N[C@@H](CCCCN)C(=O)N[C@@H](CCCCNC(=O)COCCOCCNC(=O)COCCOCCNC(=O)CC[C@H](NC(=O)CCCCCCCCCCCCCCCCCCC(=O)O)C(=O)O)C(=O)N[C@@H](Cc1c[nH]cn1)C(=O)N[C@@H](CCC(N)=O)C(=O)NC(C)(C)C(=O)N[C@@H](CC(=O)O)C(=O)N[C@@H](Cc1ccccc1)C(=O)N[C@H](C(=O)N[C@@H](CCC(=O)O)C(=O)N[C@@H](Cc1ccc(O)cc1)C(=O)N[C@@H](CC(C)C)C(=O)N[C@@H](CC(C)C)C(=O)N[C@@H](C)C(=O)NCC(=O)NCC(=O)N1CCC[C@H]1C(=O)N[C@@H](CO)C(=O)N[C@@H](CO)C(=O)NCC(=O)N[C@@H](C)C(=O)N1CCC[C@H]1C(=O)N1CCC[C@H]1C(=O)N1CCC[C@H]1C(=O)N[C@@H](CO)C(N)=O)C(C)C)[C@@H](C)CC [Example 53] (H-Y[Aib]EGTFISDYSI[αMeL]LDKK([AEEA-AEEA-γGlu-C20 diacid])HQ[Aib]DFVEYLLAGGPSSGAPPPS-NH2) | 152 | 0.0184 | 62.9
CC[C@H](C)[C@H](NC(=O)[C@H](CO)NC(=O)[C@H](Cc1ccc(O)cc1)NC(=O)[C@H](CC(=O)O)NC(=O)[C@H](CO)NC(=O)[C@@H](NC(=O)[C@](C)(Cc1ccccc1)NC(=O)[C@@H](NC(=O)CNC(=O)[C@H](CCC(=O)O)NC(=O)C(C)(C)NC(=O)[C@@H](N)Cc1ccc(O)cc1)[C@@H](C)O)[C@@H](C)CC)C(=O)N[C@@](C)(CC(C)C)C(=O)N[C@@H](CC(C)C)C(=O)N[C@@H](CC(=O)O)C(=O)N[C@@H](CCCCN)C(=O)N[C@@H](CCCCNC(=O)COCCOCCNC(=O)COCCOCCNC(=O)CC[C@H](NC(=O)CCCCCCCCCCCCCCCCCCC(=O)O)C(=O)O)C(=O)N[C@@H](Cc1c[nH]cn1)C(=O)N[C@@H](CCC(N)=O)C(=O)NC(C)(C)C(=O)N[C@@H](CCC(=O)O)C(=O)N[C@@H](Cc1ccccc1)C(=O)N[C@H](C(=O)N[C@@H](CCC(=O)O)C(=O)N[C@@H](Cc1ccncc1)C(=O)N[C@@H](CC(C)C)C(=O)N[C@@H](CC(C)C)C(=O)N[C@@H](C)C(=O)N[C@@H](CCC(N)=O)C(=O)NCC(=O)N1CCC[C@H]1C(=O)N[C@@H](CO)C(=O)N[C@@H](CO)C(=O)NCC(=O)N[C@@H](C)C(=O)N1CCC[C@H]1C(=O)N1CCC[C@H]1C(=O)N1CCC[C@H]1C(=O)N[C@@H](CO)C(N)=O)C(C)C [Example 60] (H-Y[Aib]EGT[αMeF]ISDYSI[αMeL]LDKK([AEEA-AEEA-γGlu-C20 diacid])HQ[Aib]EFVE[4Pal]LLAQGPSSGAPPPS-NH2) | 26.2 | 0.039 | 51.4
CC[C@H](C)[C@H](NC(=O)[C@H](CO)NC(=O)[C@H](Cc1ccc(O)cc1)NC(=O)[C@H](CC(=O)O)NC(=O)[C@H](CO)NC(=O)[C@@H](NC(=O)[C@](C)(Cc1ccccc1)NC(=O)[C@@H](NC(=O)CNC(=O)[C@H](CCC(=O)O)NC(=O)C(C)(C)NC(=O)[C@@H](N)Cc1ccc(O)cc1)[C@@H](C)O)[C@@H](C)CC)C(=O)N[C@@H](C)C(=O)N[C@@H](CC(C)C)C(=O)N[C@@H](CC(=O)O)C(=O)N[C@@H](CCCCN)C(=O)N[C@@H](CCCCNC(=O)COCCOCCNC(=O)COCCOCCNC(=O)CC[C@H](NC(=O)CCCCCCCCCCCCCCCCCCC(=O)O)C(=O)O)C(=O)N[C@@H](Cc1c[nH]cn1)C(=O)N[C@@H](CCC(N)=O)C(=O)NC(C)(C)C(=O)N[C@@H](CC(=O)O)C(=O)N[C@@H](Cc1ccccc1)C(=O)N[C@H](C(=O)N[C@@H](CCC(=O)O)C(=O)N[C@@H](Cc1ccncc1)C(=O)N[C@@H](CC(C)C)C(=O)N[C@@H](CC(C)C)C(=O)N[C@@H](CCC(=O)O)C(=O)N[C@H](C(=O)NCC(=O)N1CCC[C@H]1C(=O)N[C@@H](CO)C(=O)N[C@@H](CO)C(=O)NCC(=O)N[C@@H](C)C(=O)N1CCC[C@H]1C(=O)N1CCC[C@H]1C(=O)N1CCC[C@H]1C(=O)N[C@@H](CO)C(N)=O)[C@@H](C)O)C(C)C [Example 41] (H-Y[Aib]EGT[αMeF]ISDYSIALDKK([AEEA-AEEA-γGlu-C20 diacid])HQ[Aib]DFVE[4Pal]LLETGPSSGAPPPS-NH2) | 758 | 0.143 | > 906
